Laboratory results published in ChEMBL document CHEMBL4190389, “Synthesis and activity of di- or trisubstituted N-(phenoxyalkyl)- or N-{2-[2-(phenoxy)ethoxy]ethyl}piperazine derivatives on the central nervous system” (Bioorg Med Chem Lett, 2018).

Key:
D(2) dopamine receptor = D(2) dopamine receptor (Homo sapiens, UniProt P14416); experiment: Binding affinity to D2 receptor (unknown origin)
[1] = target: T1, Adrenergic receptor alpha-1 (Rattus norvegicus, UniProt P15823+P23944+P43140); experiment: Displacement of [3H]prazosin from rat cerebral cortex adrenergic receptor alpha1 by liquid scintillation counting method
T1 sequence (P15823 whole entry): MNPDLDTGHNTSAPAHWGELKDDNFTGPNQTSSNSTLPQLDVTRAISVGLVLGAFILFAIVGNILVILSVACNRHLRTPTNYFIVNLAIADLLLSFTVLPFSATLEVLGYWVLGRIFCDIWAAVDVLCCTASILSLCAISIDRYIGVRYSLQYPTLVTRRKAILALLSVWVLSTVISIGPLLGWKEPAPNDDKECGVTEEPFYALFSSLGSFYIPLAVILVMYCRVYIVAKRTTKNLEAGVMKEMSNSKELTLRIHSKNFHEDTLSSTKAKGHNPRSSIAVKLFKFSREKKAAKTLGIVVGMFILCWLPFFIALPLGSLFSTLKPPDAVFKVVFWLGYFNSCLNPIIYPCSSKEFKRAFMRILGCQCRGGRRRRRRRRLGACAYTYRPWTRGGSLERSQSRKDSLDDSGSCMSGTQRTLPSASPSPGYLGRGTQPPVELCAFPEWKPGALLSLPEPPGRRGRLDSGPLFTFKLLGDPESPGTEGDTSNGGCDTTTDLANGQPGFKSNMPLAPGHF
T1 sequence (P23944 whole entry): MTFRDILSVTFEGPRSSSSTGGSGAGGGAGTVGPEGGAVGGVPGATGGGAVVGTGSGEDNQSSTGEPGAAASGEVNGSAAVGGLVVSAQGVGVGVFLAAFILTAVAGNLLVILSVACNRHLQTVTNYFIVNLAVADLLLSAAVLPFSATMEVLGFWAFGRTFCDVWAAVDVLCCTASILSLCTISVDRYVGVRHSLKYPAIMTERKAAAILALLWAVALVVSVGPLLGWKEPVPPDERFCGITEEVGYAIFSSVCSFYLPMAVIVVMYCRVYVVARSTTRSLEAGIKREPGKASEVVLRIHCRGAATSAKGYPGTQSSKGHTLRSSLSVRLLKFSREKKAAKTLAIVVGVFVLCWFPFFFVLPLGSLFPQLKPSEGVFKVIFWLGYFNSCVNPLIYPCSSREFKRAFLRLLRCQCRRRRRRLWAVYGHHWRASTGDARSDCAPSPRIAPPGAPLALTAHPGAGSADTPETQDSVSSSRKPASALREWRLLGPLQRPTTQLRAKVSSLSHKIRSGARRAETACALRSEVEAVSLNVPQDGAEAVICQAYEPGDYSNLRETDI
T1 sequence (P43140 whole entry): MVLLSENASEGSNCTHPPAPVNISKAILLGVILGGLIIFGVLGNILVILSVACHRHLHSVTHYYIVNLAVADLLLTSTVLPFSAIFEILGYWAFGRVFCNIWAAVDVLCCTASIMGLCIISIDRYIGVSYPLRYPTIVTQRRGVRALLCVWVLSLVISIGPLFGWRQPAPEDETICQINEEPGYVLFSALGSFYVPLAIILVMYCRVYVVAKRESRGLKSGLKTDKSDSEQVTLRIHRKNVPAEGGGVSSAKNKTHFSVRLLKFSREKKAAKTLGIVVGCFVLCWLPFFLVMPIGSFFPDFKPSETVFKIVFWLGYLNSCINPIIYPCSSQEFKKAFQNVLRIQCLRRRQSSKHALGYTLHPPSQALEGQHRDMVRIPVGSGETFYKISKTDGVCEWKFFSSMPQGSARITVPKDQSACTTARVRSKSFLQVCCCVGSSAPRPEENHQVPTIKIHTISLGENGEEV

[2] = target: T2, 5-hydroxytryptamine receptor 2A (Homo sapiens, UniProt P28223); experiment: Binding affinity to 5-HT2A receptor (unknown origin)
T2 sequence (P28223 whole entry): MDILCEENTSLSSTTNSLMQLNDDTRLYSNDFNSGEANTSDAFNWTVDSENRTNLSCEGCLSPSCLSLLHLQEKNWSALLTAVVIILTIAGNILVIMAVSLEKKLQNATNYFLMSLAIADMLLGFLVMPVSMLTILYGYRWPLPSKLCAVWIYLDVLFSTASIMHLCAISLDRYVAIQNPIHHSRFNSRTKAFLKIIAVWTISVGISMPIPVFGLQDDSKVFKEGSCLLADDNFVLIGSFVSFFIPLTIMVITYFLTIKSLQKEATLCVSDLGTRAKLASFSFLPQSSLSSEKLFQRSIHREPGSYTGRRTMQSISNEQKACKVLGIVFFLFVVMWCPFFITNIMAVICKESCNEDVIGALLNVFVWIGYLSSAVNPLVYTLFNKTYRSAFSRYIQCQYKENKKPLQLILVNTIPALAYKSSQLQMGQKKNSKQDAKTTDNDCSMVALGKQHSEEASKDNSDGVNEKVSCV

[3] = target: T3, Adrenergic receptor alpha-2 (Rattus norvegicus, UniProt P22086+P19328+P22909); experiment: Displacement of [3H]clonidine from rat cerebral cortex adrenergic receptor alpha2 by liquid scintillation counting method
T3 sequence (P22086 whole entry): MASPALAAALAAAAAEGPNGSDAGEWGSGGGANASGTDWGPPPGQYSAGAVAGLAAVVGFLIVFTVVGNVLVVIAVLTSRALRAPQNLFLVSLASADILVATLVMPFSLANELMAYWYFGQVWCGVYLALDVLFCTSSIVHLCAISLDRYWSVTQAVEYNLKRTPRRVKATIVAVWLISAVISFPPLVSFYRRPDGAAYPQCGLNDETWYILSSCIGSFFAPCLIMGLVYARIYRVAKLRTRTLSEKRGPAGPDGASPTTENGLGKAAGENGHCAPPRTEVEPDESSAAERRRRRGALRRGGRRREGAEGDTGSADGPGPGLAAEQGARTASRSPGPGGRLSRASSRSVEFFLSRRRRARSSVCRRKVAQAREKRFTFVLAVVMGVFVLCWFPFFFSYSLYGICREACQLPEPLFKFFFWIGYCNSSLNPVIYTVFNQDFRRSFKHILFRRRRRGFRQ
T3 sequence (P19328 whole entry): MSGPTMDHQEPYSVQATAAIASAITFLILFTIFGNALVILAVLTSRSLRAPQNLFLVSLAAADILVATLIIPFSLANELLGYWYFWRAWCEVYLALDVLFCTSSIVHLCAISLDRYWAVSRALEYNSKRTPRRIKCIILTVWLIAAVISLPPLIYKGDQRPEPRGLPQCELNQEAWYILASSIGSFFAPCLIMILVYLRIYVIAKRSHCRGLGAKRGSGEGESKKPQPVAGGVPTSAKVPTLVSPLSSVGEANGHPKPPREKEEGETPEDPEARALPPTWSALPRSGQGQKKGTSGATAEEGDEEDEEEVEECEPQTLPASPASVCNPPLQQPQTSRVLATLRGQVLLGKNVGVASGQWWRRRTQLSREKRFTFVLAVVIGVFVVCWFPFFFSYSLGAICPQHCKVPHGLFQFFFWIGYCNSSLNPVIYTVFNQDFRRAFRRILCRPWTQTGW
T3 sequence (P22909 whole entry): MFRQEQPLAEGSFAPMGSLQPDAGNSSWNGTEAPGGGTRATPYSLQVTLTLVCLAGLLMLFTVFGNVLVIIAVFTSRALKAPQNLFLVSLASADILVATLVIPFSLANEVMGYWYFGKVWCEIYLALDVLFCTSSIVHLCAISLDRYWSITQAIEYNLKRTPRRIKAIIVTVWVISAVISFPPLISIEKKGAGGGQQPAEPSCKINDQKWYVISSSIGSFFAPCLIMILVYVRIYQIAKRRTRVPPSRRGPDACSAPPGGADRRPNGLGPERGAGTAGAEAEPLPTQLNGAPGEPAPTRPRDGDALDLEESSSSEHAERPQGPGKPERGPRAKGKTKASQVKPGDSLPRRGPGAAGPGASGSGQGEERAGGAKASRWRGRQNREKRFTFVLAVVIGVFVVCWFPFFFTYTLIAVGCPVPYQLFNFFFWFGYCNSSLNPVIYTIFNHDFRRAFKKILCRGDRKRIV

[4] = target: T2, 5-hydroxytryptamine receptor 2A; experiment: Displacement of [3H]-ketanserin from recombinant human 5-HT2A receptor after 60 mins by liquid scintillation counting method
[5] = target: T4, 5-hydroxytryptamine receptor 1A (Rattus norvegicus, UniProt P19327); experiment: Displacement of [3H]8-OH-DPAT from Wistar rat 5-HT1A receptor after 20 mins by liquid scintillation counting method
T4 sequence (P19327 whole entry): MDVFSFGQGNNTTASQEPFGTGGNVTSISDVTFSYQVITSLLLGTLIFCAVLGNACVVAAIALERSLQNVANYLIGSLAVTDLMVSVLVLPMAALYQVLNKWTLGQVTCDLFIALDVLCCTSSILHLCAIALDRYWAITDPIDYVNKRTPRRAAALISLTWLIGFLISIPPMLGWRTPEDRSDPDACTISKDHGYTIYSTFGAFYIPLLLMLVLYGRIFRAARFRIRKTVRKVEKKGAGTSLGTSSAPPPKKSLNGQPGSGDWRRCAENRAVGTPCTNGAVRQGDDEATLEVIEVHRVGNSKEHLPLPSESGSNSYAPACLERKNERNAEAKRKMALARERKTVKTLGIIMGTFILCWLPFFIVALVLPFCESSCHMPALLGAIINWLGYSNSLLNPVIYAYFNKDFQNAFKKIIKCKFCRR

[6] = target: 5-hydroxytryptamine receptor 7 (Homo sapiens, UniProt P34969); experiment: Displacement of [3H]-LSD from recombinant human 5-HT7 receptor after 60 mins by liquid scintillation counting method
Sequence of 5-hydroxytryptamine receptor 7 (P34969 whole entry): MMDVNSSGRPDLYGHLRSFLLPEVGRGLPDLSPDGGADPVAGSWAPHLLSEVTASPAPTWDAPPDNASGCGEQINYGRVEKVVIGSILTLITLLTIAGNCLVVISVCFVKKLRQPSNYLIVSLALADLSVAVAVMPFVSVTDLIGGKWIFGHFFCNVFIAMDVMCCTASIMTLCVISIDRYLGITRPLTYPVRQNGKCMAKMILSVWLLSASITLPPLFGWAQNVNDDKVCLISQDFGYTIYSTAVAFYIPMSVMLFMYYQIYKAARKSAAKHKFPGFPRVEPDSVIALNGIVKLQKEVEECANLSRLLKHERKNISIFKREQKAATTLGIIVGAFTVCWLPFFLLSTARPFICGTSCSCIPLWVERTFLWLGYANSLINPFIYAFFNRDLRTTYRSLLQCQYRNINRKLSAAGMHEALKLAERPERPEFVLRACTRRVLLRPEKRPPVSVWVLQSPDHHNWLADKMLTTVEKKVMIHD

Sequence of D(2) dopamine receptor (P14416 whole entry): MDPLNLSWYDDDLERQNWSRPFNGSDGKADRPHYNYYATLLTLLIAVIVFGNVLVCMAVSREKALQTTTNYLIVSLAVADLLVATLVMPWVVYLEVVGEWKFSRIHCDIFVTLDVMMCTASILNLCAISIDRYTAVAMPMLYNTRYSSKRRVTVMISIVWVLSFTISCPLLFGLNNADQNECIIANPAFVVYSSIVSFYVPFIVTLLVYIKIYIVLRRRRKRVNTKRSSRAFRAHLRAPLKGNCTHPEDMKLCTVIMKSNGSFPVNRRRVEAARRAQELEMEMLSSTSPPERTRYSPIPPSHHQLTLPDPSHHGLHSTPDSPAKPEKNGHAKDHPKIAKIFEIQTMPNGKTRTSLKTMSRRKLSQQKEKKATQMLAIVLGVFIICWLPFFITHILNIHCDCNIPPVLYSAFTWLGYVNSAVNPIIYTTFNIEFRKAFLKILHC

| Ki (D(2) dopamine receptor) | Ki [1] | Ki [2] | Ki [3] | Ki [4] | Ki [5] | Ki [6] | Compound |
| --- | --- | --- | --- | --- | --- | --- | --- |
| 0.378 µM | 0.3 µM | 0.05 µM |  |  |  |  | OCCOCCN1CCN(C(c2ccccc2)c2ccc(Cl)cc2)CC1 (configuration not stated) [HYDROXYZINE] |
|  |  |  | 0.341 µM | 0.192 µM | 0.0007 µM | 0.026 µM | COc1ccccc1N1CCN(CCCOc2c(C)cccc2C)CC1.Cl |
